Data as given in patent US20200085776A1, “Methods of Reducing C-Reactive Protein and/or Treating Cardiovascular Disease” (CARDAX, INC., priority 2018, published 2020).

System: C-reactive protein (CRP)
Experiment: CRP (hs-CRP) in blood, CHASE clinical study
Format: in vivo, human
Details: Group X 12 mg BID
Excerpt: This is a two-part study comprising Part I and Part II. Following screening, Part I consists of a randomized, double-blind, placebo controlled dosing period of up to 12 weeks. The study shall be conducted at one or more study sites in Hawaii. Approximately 360 subjects qualified after completion of screening procedures shall be randomized in a 1:1:1 ratio to one of three treatment groups, per Table 1.
The Part I 12-week double-blind dosing period commences with V2, including randomization and first dose of study product, and continues with study visits at Week 1-2 (V3), Week 4 (V4), Week 8 (V5), and Week 12 (V6). V6 procedures will conclude Part I.
Blood shall be obtained at each visit for CRP. The screening specimen shall be processed at the local lab and reported to the study staff for eligibility determination; CRP samples at V7 and V8 may also be processed locally and reported directly to study staff. Samples for CRP from V2 through V6 may be batched, processed, and reported as specified in the Laboratory Manual.
At each these visits, blood was obtained for measurement of CRP, among other parameters. Table 7A provides a summary of the CRP measurements (mg/L) at each visit and Table 7B provides a summary of the differences of CRP levels between V2 and V6.

[1] = V1 screening, subjects with baseline level greater than 2.0
[2] = V2 baseline pre-dose, all subjects
[3] = V2 baseline pre-dose, subjects not taking a hypertension agent
[4] = V2 baseline pre-dose, subjects not taking any cardiac therapeutic agent
[5] = V2 baseline pre-dose, subjects not taking statins
[6] = V2 baseline pre-dose, subjects taking an anti-diabetic agent
[7] = V2 baseline pre-dose, subjects with CAD
[8] = V2 baseline pre-dose, subjects with DM2, hypertension and hyperlipidemia but not CAD
[9] = V2 baseline pre-dose, subjects with Diabetes Mellitus Type II
[10] = V2 baseline pre-dose, subjects with baseline level greater than 2.0
[11] = V2 baseline pre-dose, subjects with hyperlipidemia
[12] = V3 Week 1-2, subjects with baseline level greater than 2.0
[13] = V4 Week 4, subjects with baseline level greater than 2.0
[14] = V5 Week 8, subjects with baseline level greater than 2.0
[15] = V6 Week 12, subjects not taking a hypertension agent
[16] = V6 Week 12, subjects not taking any cardiac therapeutic agent
[17] = V6 Week 12, subjects not taking statins
[18] = V6 Week 12, subjects taking an anti-diabetic agent

CC1=C(/C=C/C(C)=C/C=C/C(C)=C/C=C/C=C(C)/C=C/C=C(C)/C=C/C2=C(C)C(=O)C(O)CC2(C)C)C(C)(C)CC(O)C1=O (stereo not drawn) [Astaxanthin, astaxanthin]
CRP Max (V1 screening, all subjects): 15.96 mg/L | CRP Mean (SD) (V1 screening, all subjects): 5.43 (3.91) mg/L | CRP Median (V1 screening, all subjects): 3.95 mg/L | CRP Min (V1 screening, all subjects): 2.87 mg/L | CRP Max [1]: 15.96 mg/L | CRP Mean (SD) [1]: 5.64 (4.06) mg/L | CRP Median [1]: 3.98 mg/L | CRP Min [1]: 2.87 mg/L | CRP Max [2]: 17.86 mg/L | CRP Mean (SD) [2]: 5.52 (4.80) mg/L | CRP Median [2]: 3.64 mg/L | CRP Min [2]: 1.39 mg/L | CRP Max [3]: 3.64, 3.64 mg/L | CRP Mean (SD) [3]: 3.64 mg/L | CRP Median [3]: 3.64 mg/L | CRP Min [3]: 3.64, 3.64 mg/L | CRP Max [4]: 17.86 mg/L | CRP Mean (SD) [4]: 6.81 (6.86) mg/L | CRP Median [4]: 3.64 mg/L | CRP Min [4]: 1.39 mg/L | CRP Max [5]: 8.61 mg/L | CRP Mean (SD) [5]: 4.04 (2.48) mg/L | CRP Median [5]: 3.12 mg/L | CRP Min [5]: 2.16 mg/L | CRP Max [6]: 17.86 mg/L | CRP Mean (SD) [6]: 7.52 (5.87) mg/L | CRP Median [6]: 6.78 mg/L | CRP Min [6]: 1.39 mg/L | CRP Max [7]: 8.61, 8.61 mg/L | CRP Mean (SD) [7]: 8.61 mg/L | CRP Median [7]: 8.61 mg/L | CRP Min [7]: 8.61, 8.61 mg/L | CRP Max [8]: 17.86 mg/L | CRP Mean (SD) [8]: 7.30 (6.54) mg/L | CRP Median [8]: 4.94 mg/L | CRP Min [8]: 1.39 mg/L | CRP Max [9]: 17.86 mg/L | CRP Mean (SD) [9]: 7.52 (5.87) mg/L | CRP Median [9]: 6.78 mg/L | CRP Min [9]: 1.39 mg/L | CRP Max [10]: 17.86 mg/L | CRP Mean (SD) [10]: 5.93 (4.85) mg/L | CRP Median [10]: 4.29 mg/L | CRP Min [10]: 2.16 mg/L | CRP Max [11]: 17.86 mg/L | CRP Mean (SD) [11]: 6.71 (5.19) mg/L | CRP Median [11]: 4.95 mg/L | CRP Min [11]: 1.39 mg/L | CRP Max (V3 Week 1-2, all subjects): 6.72 mg/L | CRP Mean (SD) (V3 Week 1-2, all subjects): 3.72 (2.06) mg/L | CRP Median (V3 Week 1-2, all subjects): 3.44 mg/L | CRP Min (V3 Week 1-2, all subjects): 0.44 mg/L | CRP Max [12]: 6.72 mg/L | CRP Mean (SD) [12]: 3.97 (1.97) mg/L | CRP Median [12]: 3.55 mg/L | CRP Min [12]: 0.44 mg/L | CRP Max (V4 Week 4, all subjects): 15.83 mg/L | CRP Mean (SD) (V4 Week 4, all subjects): 3.98 (4.24) mg/L | CRP Median (V4 Week 4, all subjects): 2.56 mg/L | CRP Min (V4 Week 4, all subjects): 0.56 mg/L | CRP Max [13]: 15.83 mg/L | CRP Mean (SD) [13]: 4.22 (4.39) mg/L | CRP Median [13]: 3.27 mg/L | CRP Min [13]: 0.56 mg/L | CRP Max (V5 Week 8, all subjects): 18.24 mg/L | CRP Mean (SD) (V5 Week 8, all subjects): 4.90 (4.99) mg/L | CRP Median (V5 Week 8, all subjects): 3.71 mg/L | CRP Min (V5 Week 8, all subjects): 1.06 mg/L | CRP Max [14]: 18.24 mg/L | CRP Mean (SD) [14]: 5.29 (5.09) mg/L | CRP Median [14]: 4.08 mg/L | CRP Min [14]: 1.06 mg/L | CRP Max (V6 Week 12, all subjects): 11.04 mg/L | CRP Mean (SD) (V6 Week 12, all subjects): 3.45 (3.09) mg/L | CRP Median (V6 Week 12, all subjects): 2.70 mg/L | CRP Min (V6 Week 12, all subjects): 0.22 mg/L | CRP Max [15]: 2.70, 2.70 mg/L | CRP Mean (SD) [15]: 2.70 mg/L | CRP Median [15]: 2.70 mg/L | CRP Min [15]: 2.70, 2.70 mg/L | CRP Max [16]: 6.80 mg/L | CRP Mean (SD) [16]: 2.53 (2.56) mg/L | CRP Median [16]: 1.91 mg/L | CRP Min [16]: 0.22 mg/L | CRP Max [17]: 11.04 mg/L | CRP Mean (SD) [17]: 3.86 (3.78) mg/L | CRP Median [17]: 2.71 mg/L | CRP Min [17]: 0.22 mg/L | CRP Max [18]: 6.80 mg/L | CRP Mean (SD) [18]: 2.91 (2.07) mg/L | CRP Median [18]: 2.32 mg/L | CRP Min [18]: 1.02 mg/L | CRP Max (V6 Week 12, subjects with CAD): 2.72, 2.72 mg/L | CRP Mean (SD) (V6 Week 12, subjects with CAD): 2.72 mg/L | CRP Median (V6 Week 12, subjects with CAD): 2.72 mg/L | CRP Min (V6 Week 12, subjects with CAD): 2.72, 2.72 mg/L
